Experimental data reported in paper PMC8073907, “Peptide targeting of lysophosphatidylinositol-sensing GPR55 for osteoclastogenesis tuning” (Cell Communication and Signaling : CCS, 2021).

Key:
[1] = tested on: GPR55-silenced HeLa cells; experiment: LPI-induced ERK1/2 and p38 phosphorylation in shGPR55-HeLa clones (Western blot); format: cell-based, human
Protocol: (§1) For stable interference of GPR55, HeLa cells were plated at 1.5 × 10^5 cells/well in six-well plates in growth medium without antibiotics, and 24 h later, the cells were transfected with 1.7 µg/well OmicsLink short hairpin (sh)RNA expression clone CSHCTR001-CU6 (shCTRL) or clone HSH022476-3-CU6 (shGPR55) from GeneCopoeia (Rockville, MD, USA), using Lipofectamine 2000, according the manufacturer instructions. Forty-eight hours after transfection, HeLa clones stably expressing shRNAs were selected in growth medium containing 0.3 µg/mL puromycin. The efficiency of interference was monitored by real-time PCR using the primers listed in the Additional file 1: Table S1. HPRT1 was followed as a housekeeping gene.
Twenty-four hours after transfection (HEK293T, HeLa cells or clones) or 72 h after interference (RAW264.7 cells), the cells were washed twice with HBSS^++, serum deprived (HEK293T cells for 4 h in DMEM; HeLa cells and clones for 2 h in MEM plus 2 mM glutamine and 25 mM HEPES; RAW264.7 cells for 2 h in DMEM), washed once again with HBSS^++, incubated in stimulation buffer (HBSS^++ with 10 mM HEPES, 0.4% faf-BSA for HEK293T cells; HBSS^++ with 25 mM HEPES and 0.01% faf-BSA for HeLa cells, clones, and RAW264.7 cells) in the absence or presence of stimuli, at 37 °C for the indicated times. Incubations were terminated by washing the cells twice with cold HBSS^++, and the analyses were performed as reported below.
Cell lysates were obtained by scraping the cells into phospho-lysis buffer: 50 mM Tris–HCl, pH 7.5, 100 mM NaCl, 5 mM EDTA, 1% Triton X-100, 50 mM NaF, 40 mM β-glycerophosphate, 200 µM sodium orthovanadate, plus protease and phosphatase inhibitors (Roche). […]
Protein lysates were subjected to SDS-PAGE, and after electrophoresis, the proteins were transferred to a nitrocellulose membrane (PerkinElmer Life Science, Boston, MA, USA). […] The membranes were then washed twice with T-TBS and once with TBS for 5 min, and the signals were detected by ECL (Amersham Pharmacia, Piscataway, NJ, USA). […]

[2] = tested on: ssGPR55-K80A and ssGPR55-Q87A; experiment: LPI-induced MAPK activation in shGPR55-HeLa clones expressing ssGPR55 mutants; format: cell-based, human; conditions: 10 µM 18:0 LPI
Text: The construct of haemagglutinin (HA)-tagged human GPR55 in pcDNA3 (HA-GPR55) was a gift from Prof. K. Mackie, Indiana University, Bloomington, IN, USA [39], while the construct ss-3 × HA-GPR55 in pcDNA3.1 (ssGPR55) with a triple HA tag at the N-terminus and an optimised signal sequence (ss, derived from amino acids 1–33 of the human growth hormone: […]) for efficient surface expression was from Prof. A. Irving, Dundee University, UK [40]. For both constructs, mutations were introduced by site-directed mutagenesis using QuickChange kits (Stratagene, La Jolla, CA, USA), according to the manufacturer instructions. The primers for the K80A mutation were 5′-[…]-3′ and 5′-[…]-3′ (Tm, 70.6 °C), and for Q87A were 5′-[…]-3′ and 5′-[…]-3′ (Tm, 73.1 °C).
HeLa cells were plated at 1.5 × 10^5 cells/well in six-well plates in their growth medium without antibiotics. Twenty-four hours later, the cells were transfected with 2.5 µg/well pcDNA3.1, or the mutants ssGPR55-K80A, ssGPR55-Q87A, or 1.25 µg/well (complemented with 1.25 µg/well empty vector) ssGPR55, using Lipofectamine 2000, according to the manufacturer instructions. The different cDNA amounts were necessary to reach equivalent plasma-membrane expression of the receptors, as the mutants were expressed at lower levels, as verified by FACS analyses, and in line with previous reports.
as §1, with “gene. […]” for “gene.”

lysophosphatidylinositol [LPI]
LPI response of empty vector (pcDNA3.1) transfected clones ([1]; 10 µM 18:0 LPI): did not respond to LPI addition | ERK1/2 and p38 activation ([1]; 10 µM soybean LPI, or 1 µM ionomycin 5 min): did not show any ERK1/2 and p38 activation | LPI-stimulated activation of p38 [2]: no LPI-stimulated activation of p38 | LPI-stimulated activation of ERK2, 5 min ([2]; 5 min): no response at 5 min | LPI-stimulated activation of ERK2, 10 min ([2]; 10 min): reduced response at 10 min
